# Source: the OligoGym collection
# Only the 19 paired bases of each siRNA are shown; overhangs and chemistry are not given here.
# Target: PTEN
# Assay: five studies, different assays
# Conditions: siRNA
# Note: test concentration or dose not given here.
row,Substance,target inhibition [%]
1,sense UCUCGGAAGCUGCAGCCAU / antisense AUGGCUGCAGCUUCCGAGA,40
2,sense CAGUCAGAGGCGCUAUGUG / antisense CACAUAGCGCCUCUGACUG,73
3,sense UUCCGAAAGGUUUUGCUAC / antisense GUAGCAAAACCUUUCGGAA,32
4,sense UCAAAGUAGAGUUCUUCCA / antisense UGGAAGAACUCUACUUUGA,30
5,sense GCGGCGGCGGCACCUCCCG / antisense CGGGAGGUGCCGCCGCCGC,20
6,sense UAAAACACCAUGAAAAUAA / antisense UUAUUUUCAUGGUGUUUUA,58
7,sense CACUGACUCUGAUCCAGAG / antisense CUCUGGAUCAGAGUCAGUG,15
8,sense GCACAUCCAGGGACCCGGG / antisense CCCGGGUCCCUGGAUGUGC,32
9,sense UGACACCGCCAAAUUUAAU / antisense AUUAAAUUUGGCGGUGUCA,65
10,sense GAGGCAGCCGUUCGGAGGA / antisense UCCUCCGAACGGCUGCCUC,58
11,sense CUUGACCUAUAUUUAUCCA / antisense UGGAUAAAUAUAGGUCAAG,48
12,sense GGGACGAACUGGUGUAAUG / antisense CAUUACACCAGUUCGUCCC,75
13,sense AAGUAAGGACCAGAGACAA / antisense UUGUCUCUGGUCCUUACUU,75
14,sense GCGGUCCAGAGCCAAGCGG / antisense CCGCUUGGCUCUGGACCGC,31
15,sense GGUCUUCCGAGGCGCCCGG / antisense CCGGGCGCCUCGGAAGACC,0
16,sense UUUCCAUCCUGCAGAAGAA / antisense UUCUUCUGCAGGAUGGAAA,27
17,sense UCUGUCACCAACUGAAGUG / antisense CACUUCAGUUGGUGACAGA,25
18,sense AUACAGGAACAAUAUUGAU / antisense AUCAAUAUUGUUCCUGUAU,49
19,sense CAAAUCCAGAGGCUAGCAG / antisense CUGCUAGCCUCUGGAUUUG,44
20,sense AUAAAGACAAAGCCAACCG / antisense CGGUUGGCUUUGUCUUUAU,0

# Target: LMNA
# Assay: five studies, different assays
# Conditions: siRNA
row,Substance,target inhibition [%]
1,sense GAGAAGACUUAUUCUGCCA / antisense UGGCAGAAUAAGUCUUCUC,97
2,sense GGCAUCUGCCAGCGGCUCA / antisense UGAGCCGCUGGCAGAUGCC,92
3,sense GCUUCGAGACCUGGAGGAC / antisense GUCCUCCAGGUCUCGAAGC,96
4,sense GGAGAAGACUUAUUCUGCC / antisense GGCAGAAUAAGUCUUCUCC,95
5,sense UGGAGAAGACUUAUUCUGC / antisense GCAGAAUAAGUCUUCUCCA,81
6,sense AUAAGAAGGAGCUGGAGAA / antisense UUCUCCAGCUCCUUCUUAU,96
7,sense GAAGGAGCUGGAGAAGACU / antisense AGUCUUCUCCAGCUCCUUC,93
8,sense UAAGAAGGAGCUGGAGAAG / antisense CUUCUCCAGCUCCUUCUUA,67
9,sense GGAGGACCUGCAGGAGCUC / antisense GAGCUCCUGCAGGUCCUCC,83
10,sense GCUGGCCCUGGACAUGGAG / antisense CUCCAUGUCCAGGGCCAGC,79
11,sense AAGAAGGAGCUGGAGAAGA / antisense UCUUCUCCAGCUCCUUCUU,87
12,sense AGGAGCUGGAGAAGACUUA / antisense UAAGUCUUCUCCAGCUCCU,98
13,sense AGCUGGAGAAGACUUAUUC / antisense GAAUAAGUCUUCUCCAGCU,96
14,sense AGCAGUAUAAGAAGGAGCU / antisense AGCUCCUUCUUAUACUGCU,84
15,sense AGAAGGAGCUGGAGAAGAC / antisense GUCUUCUCCAGCUCCUUCU,96
16,sense GUAUAAGAAGGAGCUGGAG / antisense CUCCAGCUCCUUCUUAUAC,96
17,sense GCCUGCGUACGGCUCUCAU / antisense AUGAGAGCCGUACGCAGGC,97
18,sense GGUGGUGACGAUCUGGGCU / antisense AGCCCAGAUCGUCACCACC,92
19,sense CCCGCUCCUACCUCCUGGG / antisense CCCAGGAGGUAGGAGCGGG,71
20,sense CUGCUCUCAGUGAGAAGCG / antisense CGCUUCUCACUGAGAGCAG,88
21,sense GGACCUGCAGGAGCUCAAU / antisense AUUGAGCUCCUGCAGGUCC,45
22,sense CUGGAGAAGACUUAUUCUG / antisense CAGAAUAAGUCUUCUCCAG,98
23,sense GCUGGACAAUGCCAGGCAG / antisense CUGCCUGGCAUUGUCCAGC,84
24,sense UAUAAGAAGGAGCUGGAGA / antisense UCUCCAGCUCCUUCUUAUA,90
25,sense UAACCCUUUGGUUUUUUUC / antisense GAAAAAAACCAAAGGGUUA,52
26,sense AGCGCAAACUGGAGUCCAC / antisense GUGGACUCCAGUUUGCGCU,98
27,sense GUGGCCAUGCGCAAGCUGG / antisense CCAGCUUGCGCAUGGCCAC,74
28,sense GCUGGAGAAGACUUAUUCU / antisense AGAAUAAGUCUUCUCCAGC,96
29,sense UGCAGCAGCAGCUGGACGA / antisense UCGUCCAGCUGCUGCUGCA,92

# Target: ICAM1
# Assay: five studies, different assays
# Conditions: siRNA
row,Substance,target inhibition [%]
1,sense AACACACAAGCCACGCCUC / antisense GAGGCGUGGCUUGUGUGUU,1
2,sense UCACAGGUUCAGAGAUUAC / antisense GUAAUCUCUGAACCUGUGA,34
3,sense UAGGCUCACAACACCACAC / antisense GUGUGGUGUUGUGAGCCUA,41
4,sense CCAUGGUACCUGCACACCU / antisense AGGUGUGCAGGUACCAUGG,75
5,sense UCCAUAGACAUGUGUAGCA / antisense UGCUACACAUGUCUAUGGA,63
6,sense CCUCUUGGCAGCCAGUGGG / antisense CCCACUGGCUGCCAAGAGG,18
7,sense ACGGUGCUGGUGAGGAGAG / antisense CUCUCCUCACCAGCACCGU,-20
8,sense UGACGGAUGCCAGCUUGGG / antisense CCCAAGCUGGCAUCCGUCA,29
9,sense CCUACCAGCUCCAGACCUU / antisense AAGGUCUGGAGCUGGUAGG,45
10,sense CCAGACUUCCUUUGUGUUA / antisense UAACACAAAGGAAGUCUGG,48
11,sense AGCUCCUGCUGAAGGCCAC / antisense GUGGCCUUCAGCAGGAGCU,10
12,sense AAGUCUAGCCUGAUGAGAG / antisense CUCUCAUCAGGCUAGACUU,50
13,sense GCUCAAGUGUCUAAAGGAU / antisense AUCCUUUAGACACUUGAGC,40
14,sense ACACUGCAGGAGAGUGCCU / antisense AGGCACUCUCCUGCAGUGU,0
15,sense GACGUGUGCAGUAAUACUG / antisense CAGUAUUACUGCACACGUC,30
16,sense UUGCACUAUUGCAGCUCCA / antisense UGGAGCUGCAAUAGUGCAA,5
17,sense UGUGUGUGUGUGUAUGUGU / antisense ACACAUACACACACACACA,7
18,sense CCAUGAAACCGAACACACA / antisense UGUGUGUUCGGUUUCAUGG,59
19,sense AAGGAGUUGCUCCUGCCUG / antisense CAGGCAGGAGCAACUCCUU,-15
20,sense CCAGGUCCACCUGGCACUG / antisense CAGUGCCAGGUGGACCUGG,21

row,Substance,target inhibition [%]
1,sense GGAGCUUCGUGUCCUGUAU / antisense AUACAGGACACGAAGCUCC,58
2,sense GGUCCUAGAGGUGGACACG / antisense CGUGUCCACCUCUAGGACC,10
3,sense GGAUGCCAGCUUGGGCACU / antisense AGUGCCCAAGCUGGCAUCC,40
4,sense AGUCGACGCUGAGCUCCUC / antisense GAGGAGCUCAGCGUCGACU,0
5,sense UGAACCUAUCCCGGGACAG / antisense CUGUCCCGGGAUAGGUUCA,20
6,sense ACCUCUGUCGGGCCAGGAG / antisense CUCCUGGCCCGACAGAGGU,5
7,sense GCCACACUGAACAGAGUGG / antisense CCACUCUGUUCAGUGUGGC,21
8,sense CUCAGCGGUCAUGUCUGGA / antisense UCCAGACAUGACCGCUGAG,33
9,sense GGGACAGGGCCUCUUCCUC / antisense GAGGAAGAGGCCCUGUCCC,52
10,sense CCAUGAGGACAUACAACUG / antisense CAGUUGUAUGUCCUCAUGG,58
11,sense GGGCAUUGUCCUCAGUCAG / antisense CUGACUGAGGACAAUGCCC,62
12,sense CAUUGGCCAACCUGCCUUU / antisense AAAGGCAGGUUGGCCAAUG,28
13,sense GUCAUCAUCACUGUGGUAG / antisense CUACCACAGUGAUGAUGAC,35
14,sense CCAACCAAUGUGCUAUUCA / antisense UGAAUAGCACAUUGGUUGG,7
15,sense AGUGAUCCUCCCACCUCAG / antisense CUGAGGUGGGAGGAUCACU,45
16,sense GGUCUCUGGCCUCACGGAG / antisense CUCCGUGAGGCCAGAGACC,7
17,sense UAUUGGGUAUGCUGAGGCC / antisense GGCCUCAGCAUACCCAAUA,43
18,sense CGGAUGCCAGCUUGGGCAC / antisense GUGCCCAAGCUGGCAUCCG,24
19,sense UCAGAGUUGCAACCUCAGC / antisense GCUGAGGUUGCAACUCUGA,1
20,sense GAUUCUGACGAAGCCAGAG / antisense CUCUGGCUUCGUCAGAAUC,-10
